Measured values as given in patent publication US20240425464A1, “Substituted Monohydrazides as Potent Antifungal Agents” (University of Kentucky Research Foundation, priority 2023, published 2024).
In brackets after ≈: the same amount, converted by molar mass. Like-named read-outs stand apart in the source and are kept apart here.

How the values were obtained:
[1] = test system: A. fumigatus NRRL 5109 (R); assay: MIC determination by in vitro antifungal assay; type: cell-based, Aspergillus fumigatus; conditions: strain R = A. fumigatus NRRL 5109
Protocol: (§1) 10 mg/mL stock solutions of compounds 1a-9j were prepared in dimethyl sulfoxide (DMSO) and were stored at −20° C. in the dark. The antifungal agent amphotericin B (AmB) was purchased from VWR (Radnor PA, USA). AmB was dissolved in DMSO at a final concentration of 5 mg/mL and was stored at −20° C., protected from light. Candida albicans American Type Culture Collection (ATCC) 10231 (strain A), C. albicans ATCC 64124 (B), and C. albicans ATCC MYA-2876 (C) were obtained from Utah State University. C. albicans ATCC 90819 (D), C. albicans ATCC MYA-2310 (E), C. albicans ATCC MYA-1237 (F), C. albicans ATCC MYA-1003 (G), Candida glabrata ATCC 2001 (H), Candida krusei ATCC 6258 (I), Candida parapsilosis ATCC 22019 (J), Cryptococcus neoformans ATCC MYA-895 (M), Aspergillus terreus ATCC MYA-3633 (N), and Aspergillus flavus ATCC MYA-3631 (0) were obtained from the American Type Culture Collection (ATCC; Manassas, VA, USA). Aspergillus nidulans ATCC 38163 (P) was obtained from University of Kentucky. Clinically derived Aspergillus fumigatus NRRL 163 (Q), A. fumigatus NRRL 5109 (R), and A. fumigatus NRRL 6113 (S) were obtained from Northern Regional Research Laboratory (NRRL). Candida auris 384 (K), C. auris 390 (L), and fungal strains 381-400 (including 10 C. auris (AR Bank #381-390), 3 Candida duobushaemulonii (AR Bank #391, AR Bank #392, and AR Bank #394), 2 Candida haemulonii (AR Bank #393 and AR Bank #395), 1 Kodameae ohmeri (AR Bank #396), 1 C. krusei (AR Bank #397), 1 Candida lusitaniae (AR Bank #398), and 2 Saccharomyces cerevisiae strains (AR Bank #399 and AR Bank #400)) were part of a larger fungal library from the AR Bank maintained by the Centers for Disease Control and Prevention (CDC; Atlanta, GA, USA). Filamentous fungi and yeasts were cultivated at 35° C. in RPMI 1640 medium (with L-glutamine, without sodium bicarbonate, Sigma-Aldrich, St. Louis, MO) buffered to a pH of 7.0 with 0.165 M morpholinepropanesulfonic acid (MOPS) buffer (Sigma-Aldrich). For cytotoxicity assays, HepG2 and the mouse macrophage cell line J774A.1 were obtained from University of Kentucky. The human embryonic kidney cell line, HEK-293, was bought from the ATCC. Mammalian cells were grown in Dulbecco's Modified Eagle's Medium (DMEM) (from VWR) with 10% fetal bovine serum (FBS) (from VWR) and 1% Pen/Strep (from ATCC). Cell lines were cultured at 37° C. with 5% CO2 and passaged by trypsinization with 0.05% trypsin: 0.53 mM EDTA (from Sigma-Aldrich).
(§2) The MIC values of compounds 1a-9j against yeast cells (strains A-P and 381-400) were determined in 96-well plates as described in the CLSI documents M27-A3 and M38-A2 with minor modifications.^2 A single colony of freshly prepared yeast cells was used to inoculate 5 mL of yeast extract peptone dextrose (YPD) broth prior to incubation overnight with shaking at 200 rpm at 35° C. From the actively growing yeast culture, 100 µL were then transferred to 900 μL of RPMI 1640 medium and re-adjusted to achieve OD600 of 0.12 (˜1×10^6 CFU/mL). The cell suspension was further diluted to achieve 1:100 in RPMI 1640 medium. 100 μL of cells were added to the wells of a 96-well microtiter plates that contained 100 µL of the compound solution to obtain concentrations of 0.06-31.3 μg/mL of compounds 1a-9j or AmB prior to incubation for 48 h at 35° C.
(§3) Finally, the activity of these monohydrazides was explored against […] non-Candida strains: Cryptococcus neoformans ATCC MYA-895 (M), Aspergillus terreus ATCC MYA-3633 (N), Aspergillus flavus ATCC MYA-3631 (O), Aspergillus nidulans ATCC 38163 (P), Aspergillus fumigatus NRRL 163 (Q), A. fumigatus NRRL 5109 (R), and A. fumigatus NRRL 6113 (S) (Tables 1A and 1B). The double dilution method was used with concentrations ranging from 0.06 to 31.3 j·tg mL^−1 for monohydrazides 1a-9j, and the commercially available positive antifungal control amphotericin B (AmB).

[2] = test system: A. fumigatus NRRL 6113 (S); assay: MIC determination by in vitro antifungal assay; type: cell-based, Aspergillus fumigatus; conditions: for MIC: strain S = A. fumigatus NRRL 6113
Protocol: as §1, §2, §3

[3] = Aspergillus fumigatus, NRRL5109, read-out: MIC
[4] = Aspergillus fumigatus, NRRL6113, read-out: MIC

| Compound | MIC [1] [μg/mL^−1] | MIC (highest activity against strain S) [2] [j·tg mL^−1] | MIC [2] [μg/mL^−1] | MIC [1, 3] [µg/mL] | MIC [2, 4] [µg/mL] |
| --- | --- | --- | --- | --- | --- |
| O=C(NNc1ccc(Cl)cc1)c1ccccn1 [Compound 2e] | 7.8 | 15.6 | 15.6 | – | – |
| O=C(NNc1cccc(Cl)c1)c1ccccn1 [Compound 2b] | >31.3 | – | >31.3 | – | – |
| COc1cccc(NNC(=O)c2ccc(Br)cn2)c1 [Compound 4c] | – | – | – | 7.8 (≈ 24.2 µM) | > 31.3 |
| COc1cccc(NNC(=O)c2cnccn2)c1 [Compound 9c] | – | – | – | 7.8 (≈ 31.9 µM) | > 31.3 |
| O=C(NNc1cccc(F)c1)c1ccccn1 [Compound 2a] | >31.3 | – | >31.3 | – | – |
| COc1ccc(NNC(=O)c2ncc(F)cc2F)cc1 [Compound 7f] | – | – | – | 31.3 (≈ 112 µM) | 31.3 (≈ 112 µM) |
| C[C@@H]1[C@H](O)[C@@H](C)/C=C/C=C/C=C/C=C/C=C/C=C/C=C/[C@H](O[C@@H]2O[C@H](C)[C@@H](O)[C@H](N)[C@@H]2O)C[C@@H]2O[C@](O)(C[C@@H](O)C[C@@H](O)[C@H](O)CC[C@@H](O)C[C@@H](O)CC(=O)O[C@H]1C)C[C@H](O)[C@H]2C(=O)O [AmB, amphotericin B, reference compound] | 0.98 | – | 1.95 | – | – |
| COc1ccc(NNC(=O)c2nc(F)ccc2F)cc1 [Compound 8f] | – | – | – | 15.6 (≈ 55.9 µM) | 31.3 (≈ 112 µM) |
| COc1ccc(NNC(=O)c2ccccn2)cc1 [Compound 2f] | – | – | – | > 31.3 | 31.3 (≈ 129 µM) |
| O=C(NNc1cccc(F)c1)c1ncc(F)cc1F [Compound 7a] | >31.3 | – | >31.3 | – | – |
| O=C(NNc1cccc(F)c1)c1ccc(F)cn1 [Compound 3a] | >31.3 | – | >31.3 | – | – |
| COc1ccc(NNC(=O)c2ccc(F)cc2F)cc1 [Compound 1f] | – | – | – | > 31.3 | > 31.3 |
| COc1cccc(NNC(=O)c2ccc(F)cn2)c1 [Compound 3c] | >31.3 | – | >31.3 | – | – |
| O=C(NNc1cc(F)cc(F)c1)c1ccccn1 [Compound 2i] | – | – | – | ≤ 0.06 | 31.3 (≈ 126 µM) |
| O=C(NNc1ccc(F)cc1F)c1cnccn1 [Compound 9g] | – | – | – | > 31.3 | > 31.3 |
| COc1cccc(NNC(=O)c2ccccn2)c1 [Compound 2c] | 3.9 | – | >31.3 | – | – |
| COc1ccc(NNC(=O)c2ccc(F)cn2)cc1 [Compound 3f] | >31.3 | – | >31.3 | – | – |

| Compound | MIC [1] [μg/mL^−1] | MIC (highest activity against strain S) [2] [j·tg mL^−1] | MIC [2] [μg/mL^−1] | MIC [1, 3] [µg/mL] | MIC [2, 4] [µg/mL] |
| --- | --- | --- | --- | --- | --- |
| O=C(NNc1cc(F)ccc1F)c1ccccn1 [Compound 2h] | – | – | – | 15.6 (≈ 62.6 µM) | > 31.3 |
| O=C(NNc1ccc(F)cc1F)c1ccccn1 [Compound 2g] | – | – | – | 15.6 (≈ 62.6 µM) | 31.3 (≈ 126 µM) |
| O=C(NNc1cccc(F)c1)c1ccc(F)cc1F [Compound 1a] | >31.3 | – | >31.3 | – | – |
| O=C(NNc1cccc(F)c1)c1nc(F)ccc1F [Compound 8a] | >31.3 | – | >31.3 | – | – |
| O=C(NNc1ccc(F)cc1)c1cccc(F)n1 [Compound 5d] | – | – | – | 15.6 (≈ 62.6 µM) | 15.6 (≈ 62.6 µM) |
| COc1ccc(NNC(=O)c2cccc(F)n2)cc1 [Compound 5f] | – | 15.6 | – | > 31.3 | 15.6 (≈ 59.7 µM) |
| O=C(NNc1ccc(F)cc1)c1ccccn1 [Compound 2d] | – | 15.6 | – | 7.8 (≈ 33.7 µM) | 15.6 (≈ 67.5 µM) |
| O=C(NNc1cccc(F)c1)c1cnccn1 [Compound 9a] | >31.3 | – | >31.3 | – | – |
| O=C(NNc1ccc(F)cc1)c1ncc(F)cc1F [Compound 7d] | – | – | – | > 31.3 | > 31.3 |
| O=C(NNc1ccc(Cl)cc1)c1cccc(F)n1 [Compound 5e] | – | 15.6 | – | – | – |
| O=C(NNc1cc(Cl)cc(Cl)c1)c1ccccn1 [Compound 2j] | – | – | – | > 31.3 | > 31.3 |
| O=C(NNc1cccc(F)c1)c1ccc(Br)cn1 [Compound 4a] | >31.3 | – | >31.3 | – | – |
| O=C(NNc1ccc(F)cc1)c1ccc(F)cc1F [Compound 1d] | – | – | – | > 31.3 | > 31.3 |
| O=C(NNc1ccc(F)cc1)c1nc(F)ccc1F [Compound 8d] | – | – | – | 15.6 (≈ 58.4 µM) | > 31.3 |
| COc1ccc(NNC(=O)c2cnccn2)cc1 [Compound 9f] | – | – | – | 31.3 (≈ 128 µM) | 31.3 (≈ 128 µM) |
| O=C(NNc1cccc(Cl)c1)c1cnccn1 [Compound 9b] | – | – | – | > 31.3 | > 31.3 |
